Assay results taken from PubChem BioAssay AID220 (DTP/NCI, 2004).
Results filed as inconclusive are left out.

Tested on: CD8F1 mice, subcutaneous mammary adenocarcinoma, T/C%
Assay: NCI In Vivo Anticancer Drug Screen. Data for tumor model Mammary Adenocarcinoma CD8F1 (subcutaneous) in CD8F1
Settings: higher = larger tumour
In short: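 Transplantable tumors were established in mice, animals were dosed with compound or vehicle, and survival or tumor size was then measured in both groups. The treated result was divided by the control result.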

O=NN(CCCl)C(=O)NC1CCC(=O)NC1=O (configuration not stated)
T/C (endpoint: median tumor weight (est.), dose: 4.0 mg/kg/injection, schedule: Q07DX005 (ip), vehicle: saline with Tween-80): 49 % of control | T/C (endpoint: median tumor weight (est.), dose: 8.0 mg/kg/injection, schedule: Q07DX005 (ip), vehicle: saline with Tween-80): 24 % of control | T/C (endpoint: median tumor weight (est.), dose: 13.0 mg/kg/injection, schedule: Q07DX005 (ip), vehicle: saline with Tween-80): 12 % of control | T/C (endpoint: median tumor weight (est.), dose: 20.0 mg/kg/injection, schedule: Q07DX005 (ip), vehicle: saline with Tween-80): 6 % of control

CN(N=O)C(N)=O
T/C (endpoint: median tumor weight (est.), dose: 3.12 mg/kg/injection, schedule: Q07DX005 (ip), vehicle: suspension in saline): 156 % of control | T/C (endpoint: median tumor weight (est.), dose: 12.5 mg/kg/injection, schedule: Q07DX005 (ip), vehicle: saline): 103 % of control | T/C (endpoint: median tumor weight (est.), dose: 12.5 mg/kg/injection, schedule: Q07DX005 (ip), vehicle: suspension in saline): 104 % of control | T/C (endpoint: median tumor weight (est.), dose: 25.0 mg/kg/injection, schedule: Q07DX005 (ip), vehicle: saline): 81 % of control | T/C (endpoint: median tumor weight (est.), dose: 25.0 mg/kg/injection, schedule: Q07DX005 (ip), vehicle: suspension in saline): 100 % of control | T/C (endpoint: median tumor weight (est.), dose: 50.0 mg/kg/injection, schedule: Q07DX005 (ip), vehicle: saline): 39 % of control | T/C (endpoint: median tumor weight (est.), dose: 50.0 mg/kg/injection, schedule: Q07DX005 (ip), vehicle: suspension in saline): 31 % of control | T/C (endpoint: median tumor weight change, dose: 15.62 mg/kg/injection, schedule: Q01DX001 (ip), vehicle: Klucel (hydroxypropylcellulose) (HPC)): 66 % of control | T/C (endpoint: median tumor weight change, dose: 16.0 mg/kg/injection, schedule: Q01DX001 (ip), vehicle: saline): 54 % of control | T/C (endpoint: median tumor weight change, dose: 31.0 mg/kg/injection, schedule: Q01DX001 (ip), vehicle: saline): 29 % of control | T/C (endpoint: median tumor weight change, dose: 31.25 mg/kg/injection, schedule: Q01DX001 (ip), vehicle: Klucel (hydroxypropylcellulose) (HPC)): 67 % of control | T/C (endpoint: median tumor weight change, dose: 31.25 mg/kg/injection, schedule: Q01DX001 (ip), vehicle: suspension in saline): 72 % of control | T/C (endpoint: median tumor weight change, dose: 62.0 mg/kg/injection, schedule: Q01DX001 (ip), vehicle: saline): 38 % of control | T/C (endpoint: median tumor weight change, dose: 62.5 mg/kg/injection, schedule: Q01DX001 (ip), vehicle: Klucel (hydroxypropylcellulose) (HPC)): 14 % of control | T/C (endpoint: median tumor weight change, dose: 62.5 mg/kg/injection, schedule: Q01DX001 (ip), vehicle: suspension in saline): 57 % of control | T/C (endpoint: median tumor weight change, dose: 125.0 mg/kg/injection, schedule: Q01DX001 (ip), vehicle: saline): -59 % of control | T/C (endpoint: median tumor weight change, dose: 125.0 mg/kg/injection, schedule: Q01DX001 (ip), vehicle: suspension in saline): -2 % of control

C=CC12COC(=O)C(=C)C1C1OC(=O)C(=C)C1C(O)C2 (configuration not stated)
T/C (endpoint: mean tumor weight, dose: 5.0 mg/kg/injection, schedule: Q07DX006 (ip), vehicle: saline): 78 % of control

COc1ccc(-c2csc(=[N+]3CCCCC3)s2)cc1
T/C (endpoint: median tumor weight change, dose: 31.0 mg/kg/injection, schedule: Q01DX001 (ip), vehicle: saline with Tween-80): 194 % of control | T/C (endpoint: median tumor weight change, dose: 31.0 mg/kg/injection, schedule: Q01DX001 (ip), vehicle: water): 75 % of control

CC(=O)Oc1[nH]c(=O)c2cccc3c2c1CCC3
T/C (endpoint: median tumor weight change, dose: 450.0 mg/kg/injection, schedule: Q01DX001 (ip), vehicle: saline with Tween-80): 155 % of control | T/C (endpoint: median tumor weight change, dose: 1800.0 mg/kg/injection, schedule: Q01DX001 (ip), vehicle: saline with Tween-80): 99 % of control

CC(C)CCC[C@@H](C)[C@H]1CC[C@H]2[C@@H]3CC=C4C[C@@H](OC(=O)Cc5ccc(N(CCCl)CCCl)cc5)CC[C@]4(C)[C@H]3CC[C@]12C
T/C (endpoint: median tumor weight (est.), dose: 25.0 mg/kg/injection, schedule: Q07DX005 (ip), vehicle: Klucel (hydroxypropylcellulose) (HPC)): 91 % of control | T/C (endpoint: median tumor weight (est.), dose: 50.0 mg/kg/injection, schedule: Q07DX005 (ip), vehicle: Klucel (hydroxypropylcellulose) (HPC)): 73 % of control | T/C (endpoint: median tumor weight (est.), dose: 100.0 mg/kg/injection, schedule: Q07DX005 (ip), vehicle: Klucel (hydroxypropylcellulose) (HPC)): 123 % of control | T/C (endpoint: median tumor weight (est.), dose: 200.0 mg/kg/injection, schedule: Q07DX005 (ip), vehicle: Klucel (hydroxypropylcellulose) (HPC)): 57 % of control | T/C (endpoint: median tumor weight (est.), dose: 400.0 mg/kg/injection, schedule: Q07DX005 (ip), vehicle: Klucel (hydroxypropylcellulose) (HPC)): 102 % of control | T/C (endpoint: median tumor weight (est.), dose: 800.0 mg/kg/injection, schedule: Q07DX005 (ip), vehicle: Klucel (hydroxypropylcellulose) (HPC)): 36 % of control

O=C1NC(=O)NC(C(=O)O)N1
T/C (endpoint: median tumor weight change, dose: 12.0 mg/kg/injection, schedule: Q01DX001 (ip), vehicle: DMSO): 79 % of control | T/C (endpoint: median tumor weight change, dose: 25.0 mg/kg/injection, schedule: Q01DX001 (ip), vehicle: DMSO): 104 % of control | T/C (endpoint: median tumor weight change, dose: 50.0 mg/kg/injection, schedule: Q01DX001 (ip), vehicle: DMSO): 79 % of control | T/C (endpoint: median tumor weight change, dose: 75.0 mg/kg/injection, schedule: Q01DX001 (ip), vehicle: DMSO): 83 % of control | T/C (endpoint: median tumor weight change, dose: 100.0 mg/kg/injection, schedule: Q01DX001 (ip), vehicle: DMSO): 73 % of control | T/C (endpoint: median tumor weight change, dose: 150.0 mg/kg/injection, schedule: Q01DX001 (ip), vehicle: DMSO): 96 % of control | T/C (endpoint: median tumor weight change, dose: 200.0 mg/kg/injection, schedule: Q01DX001 (ip), vehicle: DMSO): 83 % of control | T/C (endpoint: median tumor weight change, dose: 300.0 mg/kg/injection, schedule: Q01DX001 (ip), vehicle: DMSO): 86 % of control | T/C (endpoint: median tumor weight change, dose: 400.0 mg/kg/injection, schedule: Q01DX001 (ip), vehicle: DMSO): 56 % of control | T/C (endpoint: median tumor weight change, dose: 600.0 mg/kg/injection, schedule: Q01DX001 (ip), vehicle: DMSO): 80 % of control
